One may read the clearance as a measure of how efficiently the substance is removed, as volume per time. Usually Cmax stands for the highest concentration seen after dosing. As a reminder, the IC50 is the concentration that gives 50% inhibition. Lower therefore signals inhibition by little substance.

The subject of data set [1] is mouse colon cancer MC38(#22)-hpd-L1. Briefly: In vivo potency assay in colon cancer MC38(#22)-hpd-L1 tumor bearing mice. The arrangement: species or system C57BL/6 mice. Conditions: twice a day for 22 days. On the procedure: Experimental Protocol: In this test example, tumor bearing mice subcutaneously transplanted with mouse colon cancer MC38(#22)-hpd-L1 was investigated. After administration of Compound X of the present application via the oral administration, the in vivo efficacy of Compound X on colon cancer MC38(#22)-hpd-L1 tumor bearing mice were tested.
Experimental materials: C57BL/6 mice (female); mouse colon cancer MC38(#22)-hpd-L1 cells (Shanghai Jiao Tong University cell bank), cultured in vitro in monolayer, culture conditions were using RPMI-1640 medium containing 10/% fetal bovine serum, 37° C. 5% CO2 incubator. The cells were passaged by conventional digestion treatment with trypsin-EDTA. When the cells were in the exponential growth phase with 80% to 90% saturation, the cells were harvested and counted.
Compound Preparation: The compound was weighed and added to the solvent (40% captisol in acetate buffer, pH 3.8) to prepare a 10 mg/mL sample. 75 μL of Tecentriq solution (60 mg/mL) was taken and added to 8.925 mL of phosphate buffer solution (PBS) to make a 0.5 mg/mL phosphate solution (phosphate buffer).
Experimental Operation: Cells were resuspended in the phosphate buffer at a density of 5×10^6 cells/mL. 0.1 mL of PBS (containing 5×10^5 MC38(#22)-hpd-L1 cells) was subcutaneously inoculated into the right back of each mouse. On the day of inoculation, the mice were randomized according to their body weights into groups of 10 mice each, and dosing was begun twice a day for 22 days. The animals were weighed daily and monitored for health throughout the experimental period. Tumor diameters were measured twice a week using vernier calipers.
Tumor volume V was calculated as V=0.5×a×b^2, with a and b denoting the long and short diameters of the tumor, respectively.
The tumor suppression efficacy of the compound was evaluated by relative tumor proliferation rate T/C (%). Relative tumor proliferation rate T/C (%)=Vt/Vc×100% (Vt: mean tumor volume of the treatment group; Vc: mean tumor volume of the negative control group). Vt and Vc were data taken from the same day.

A short description of data set [2]: In vivo pharmacokinetics in mice (LC/MS/MS plasma concentration). Conditions: male, ICR, mouse; for clearance: read-out: Clearance CLz. The source says:
The LC/MS/MS method was applied to determine the medicament concentration in plasma at different moments after intravenous administration and oral gavage administration of Compound X of the present application in mice, respectively, to study the pharmacokinetic behavior of Compound X of the present application in mice, and to evaluate its pharmacokinetic characteristics.
Test animals: healthy adult male ICR mice (weighing from 25 g to 40 g, 12 mice, free to drink and eat in the intravenous injection group, fasted overnight in the gavage group, and free to drink and eat 4 h after the administration of the medicament), supplied by Beijing Viton Lever Laboratory Animal Technology Co., Ltd.
Mode of administration and dosage: animals meeting the experimental requirements were selected and weighed and labeled before administration. ICR mice were administered by tail vein (2 mg/kg, 5% DMSO, pH 4.5 20% Captisol) and by gavage (10 mg/kg, 5% DMSO, pH 4.5 20% Captisol).
Blood sample collection: Prior to blood sample collection, mice were bound and approximately […] of blood was collected from the jugular vein of each administered mouse at predetermined blood collection time points (i.v. administration: Blood was collected at 9 time points: 0.083 h, 0.25 h, 0.5 h, 1 h, 2 h, 4 h, 6 h, 7.5 h, and 24 h, respectively, after administration; and gavage administration: Blood was collected at 9 time points: 0.083 h, 0.25 h, 0.5 h, 1 h, 2 h, 4 h, 6 h, 7.5 h, and 24 h, respectively, after administration). The blood was transferred to 1.5 mL tubes preloaded with K2EDTA, and the blood plasma was separated by centrifugation for 4 min (8,000 rpm, 4° C.), which was performed within 15 min after the collection. All samples were stored in a refrigerator at −20° C. until sample analysis. LC/MS/MS method was applied to determine the medicament concentration.

For data set [3], the target named is A2B receptor (Homo sapiens (Human), UniProt P29275). Briefly: Inhibitory activity on A2B receptor, cAMP assay in CHO-K1/ADORA2B/Gα15 cells (Test Example 1). It counts as cell-based. To be noted: NECA 10 nM. On the procedure: (§1) CHO-K1/ADORA2A/Gα15 (GenScript, M00246) and CHO-K1/ADORA2B/Gα15 (GenScript, M00329) cells were cultured in Ham's F-12 (Gibco, 31765092) medium with medium conditions containing 10% FBS, 200 μg/mL Zeocin (bleomycin) and 100 μg/mL Hygromycin B (thaumatin B) or 10% FBS, 400 μg/mL G418 and 100 μg/mL Hygromycin B. Details of the culture conditions are described in the corresponding instructions.

Data set [4] deals with A2A receptor (Homo sapiens (Human), UniProt P29274). Put plainly: Inhibitory activity on A2A receptor, cAMP assay in CHO-K1/ADORA2A/Gα15 cells (Test Example 1). It is filed as cell-based. Conditions: NECA 50 nM. On the procedure:
as §1
For orientation: cAMP levels reflect the balance of adenylyl cyclase and phosphodiesterase activity.

Data set [5] can be described thus: Stability experiments of free alkali crystal form I, XRPD. It is filed as physicochemical. Conditions: 40° C., 75% RH, lid open; 1 week, 2 weeks, 1 month, 2 months, 4 months. The source says: Samples were taken at 1 week, 2 weeks, 1 month, 2 months, and 4 months for XRPD test, respectively.
A short description of data set [6]: Dynamic Vapor Sorption (DVS). It is filed as physicochemical.
The nature of data set [7]: Mixing and shaking in solvents, XRPD test. It is filed as physicochemical. From the text: […] After centrifugation, the supernatant was discarded, and the solids were placed in an oven to dryness and subjected to the XRPD test.
Data set [8] in a line: Crystal competition experiment, XRPD. It counts as physicochemical. Conditions: mixed forms I, IV, V, VI, VII shaken in different solvents for 24 h. On the procedure: In order to detect the stablest crystal form of Compound X, crystalline competition experiments were carried out. 10 mg of free alkali crystal I, free alkali crystal IV, free alkali crystal form V, free alkali crystal form VI, and free alkali crystal form VII were weighed, respectively, and mixed thoroughly. 20 mg of the mixed crystal was weighed in a glass vial, to which 1 mL of solvent in Table 14 was added respectively, and the resultant was mixed and shaken at room temperature for 24 h, and centrifugated. The precipitate was taken, dried and then measured by XRPD.

A short description of data set [9]: Differential scanning calorimetry (DSC), crystal form stability. It is filed as physicochemical. Conditions: may be transformed into free alkali crystal form I during warming up. From the text: As one of the embodiments, DSC plots in some embodiments of the present application were collected on a DISCOVERY DSC25 differential scanning calorimeter with the test parameters shown in Table 11.
On the technique in general: DSC measures the heat that a sample takes up or gives off during a temperature scan.

Where [10] appears, read: intravenous (tail vein) 2 mg/kg, read-out: Area under the curve AUC0-t.
Where [11] appears, read: intravenous (tail vein) 2 mg/kg.
Setting [12] is: po, gavage 10 mg/kg, read-out: Area under the curve AUClast.

Like-named read-outs stand apart in the source and are kept apart here.

Sequence of A2B receptor (P29275 whole entry): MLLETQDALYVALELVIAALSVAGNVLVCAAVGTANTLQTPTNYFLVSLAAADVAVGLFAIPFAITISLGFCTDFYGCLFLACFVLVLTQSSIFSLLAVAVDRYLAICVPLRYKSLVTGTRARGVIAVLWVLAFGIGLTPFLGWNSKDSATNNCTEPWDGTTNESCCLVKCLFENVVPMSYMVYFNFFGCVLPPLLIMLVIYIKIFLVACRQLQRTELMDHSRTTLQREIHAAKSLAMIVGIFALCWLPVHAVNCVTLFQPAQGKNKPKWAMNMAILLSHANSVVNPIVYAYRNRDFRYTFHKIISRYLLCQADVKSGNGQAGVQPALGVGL
Sequence of A2A receptor (P29274 whole entry): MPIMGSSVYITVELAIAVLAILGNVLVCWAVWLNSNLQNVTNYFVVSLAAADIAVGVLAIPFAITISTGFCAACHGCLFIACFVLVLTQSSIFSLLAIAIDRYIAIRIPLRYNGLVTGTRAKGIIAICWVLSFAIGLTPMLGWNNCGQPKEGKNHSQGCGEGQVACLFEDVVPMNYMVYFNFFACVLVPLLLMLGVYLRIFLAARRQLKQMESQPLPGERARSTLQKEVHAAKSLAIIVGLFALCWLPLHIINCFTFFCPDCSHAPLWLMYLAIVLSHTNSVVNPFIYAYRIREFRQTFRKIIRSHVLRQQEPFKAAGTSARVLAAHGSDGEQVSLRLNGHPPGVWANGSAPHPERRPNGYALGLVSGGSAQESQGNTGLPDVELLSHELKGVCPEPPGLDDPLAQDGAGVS

`Cc1c(C#N)cccc1-c1cc(-c2cn(Cc3cccc(C(C)(C)O)n3)nn2)nc(N)n1` [Compound D1, reference compound]: in [1] (100 mg/kg oral), the “Relative tumor proliferation rate T/C (%)” value is reported as 75.8% and the Tumor volume is on record as 902 mm^3. The AUC(0-t) in [2] (setting [10]) was 1650 ng·h/mL. In addition, the clearance in [2] (setting [11]) was determined as 19 mL/min/kg. In [2] (po, gavage 10 mg/kg), this molecule came in with a Cmax of 5960 ng/mL. Besides, in data set [2] (setting [12]), the AUC(0-t) amounted to 10300 ng·h/mL.
`Cc1c(C#N)cccc1-c1nc(N)c(F)c(-c2cn(Cc3cccc(C(C)(C)O)n3)nn2)n1` [Compound X, 3-(4-amino-5-fluoro-6-(1-((6-(2-hydroxypropan-2-yl)pyridin-2-yl)methyl)-1H-1,2,3-triazol-4-yl)pyrimidin-2-yl)-2-methylbenzonitrile]: the “Relative tumor proliferation rate T/C (%)” value is 75.5% in data set [1] (10 mg/kg oral), 34.0% in data set [1] (30 mg/kg oral) and 24.0% in data set [1] (100 mg/kg oral). Further, the Tumor volume in [1] (10 mg/kg oral) was 899 mm^3; in data set [1] (30 mg/kg oral), 405 mm^3; in data set [1] (100 mg/kg oral), 286 mm^3. The 50% inhibitory concentration (IC50) in [3] stood at 0.003 mM; in [4] it was 0.001 mM. The figures for the AUC(0-t) in data set [2] (setting [10]) and in [2] (setting [12]) were 2250 ng·h/mL and 10400 ng·h/mL, respectively. In addition, the clearance in [2] (setting [11]) was found to be 14.7 mL/min/kg. Further, the highest level in data set [2] (po, gavage 10 mg/kg) (Cmax) was 8730 ng/mL.
Turning to `Cc1c(C#N)cccc1-c1nc(N)c(F)c(-c2cn(Cc3cccc(C(C)(C)O)n3)nn2)n1` [free alkali crystal form I, 3-(4-amino-5-fluoro-6-(1-((6-(2-hydroxypropan-2-yl)pyridin-2-yl)methyl)-1H-1,2,3-triazol-4-yl)pyrimidin-2-yl)-2-methylbenzonitrile], the “physical stability (XRPD)” value in data set [5] was “physically stable”. Further, the hygroscopicity result in data set [6] (DVS, 0% to 80% RH at 25° C.) is “almost no hygroscopicity”. In addition, in [6] (relative humidity from 0% to 80% RH at 25° C.), the “change in mass due to absorption” value is given as “less than 0.2%”. Further, the “Crystal form after mixing and shaking” value is reported as “Crystal form I” in [7] (50% Ethanol, 50° C., 1 day); “Crystal form I” in data set [7] (50% Ethanol, RT, 1 day); “Crystal form I” in [7] (50% Ethanol, RT, 7 days); “Crystal form I” in [7] (Ethanol, 50° C., 1 day); “Crystal form I” in data set [7] (Ethanol, RT, 1 day); “Crystal form I” in data set [7] (Ethanol, RT, 7 days). The “Crystal form after mixing and shaking” value is given as “Crystal form I” in data set [7] (Ethyl acetate, 50° C., 1 day); “Crystal form I” in [7] (Ethyl acetate, RT, 1 day); “Crystal form I” in data set [7] (Ethyl acetate, RT, 7 days); “Crystal form I” in data set [7] (Isopropanol, 50° C., 1 day); “Crystal form I” in data set [7] (Isopropanol, RT, 1 day); “Crystal form I” in data set [7] (Isopropanol, RT, 7 days). Further, the “Crystal form after mixing and shaking” value was “Crystal form I” in data set [7] (Methyl tert-butyl ether, 50° C., 1 day); “Crystal form I” in data set [7] (Methyl tert-butyl ether, RT, 1 day); “Crystal form I” in data set [7] (Methyl tert-butyl ether, RT, 7 days); “Crystal form I” in [7] (Water, 50° C., 1 day); “Crystal form I” in data set [7] (Water, RT, 1 day); “Crystal form I” in data set [7] (Water, RT, 7 days). Further, the “Crystal form after mixing and shaking” value in [7] (n-Heptane, 50° C., 1 day) is listed as “Crystal form I”; in data set [7] (n-Heptane, RT, 1 day) it was “Crystal form I”; in data set [7] (n-Heptane, RT, 7 days) it was “Crystal form I”. In addition, in data set [7] (any of the seven solvents shown), the “change of crystal form after mixing and shaking” value is reported as “did not change”. Further, the “stablest crystal form determined by competition” value in data set [8] is given as “stable crystal form”.
`Cc1c(C#N)cccc1-c1nc(N)c(F)c(-c2cn(Cc3cccc(C(C)(C)O)n3)nn2)n1` [free alkali crystal form IV, 3-(4-amino-5-fluoro-6-(1-((6-(2-hydroxypropan-2-yl)pyridin-2-yl)methyl)-1H-1,2,3-triazol-4-yl)pyrimidin-2-yl)-2-methylbenzonitrile]: the “crystal form stability from DSC plot” value in data set [9] is reported as “sub-stable crystal form”.
